Target: Histone deacetylase 2 (Homo sapiens, UniProt Q92769)
Experiment: Reporter Displacement Assay: HDAC2 containing a C-terminal HIS-Tag (Proteros) and fluorescently-labeled anti-HIS-antibody are diluted in one vial in assay buffer 50 mM Tris, pH 8.0, 1 mM DTT, 150 mM NaCl, and 0.01% Tween20. Components are pre-incubated for 30 min, then a small volume of reporter probe (Proteros) is added from a highly concentrated stock and incubation is continued for another 30 min. Final concentrations after adding the reporter probe amount to 20 nM HDAC2, 4 nM antibody, and 180 nM probe.

Chain of Histone deacetylase 2 (Q92769 whole entry): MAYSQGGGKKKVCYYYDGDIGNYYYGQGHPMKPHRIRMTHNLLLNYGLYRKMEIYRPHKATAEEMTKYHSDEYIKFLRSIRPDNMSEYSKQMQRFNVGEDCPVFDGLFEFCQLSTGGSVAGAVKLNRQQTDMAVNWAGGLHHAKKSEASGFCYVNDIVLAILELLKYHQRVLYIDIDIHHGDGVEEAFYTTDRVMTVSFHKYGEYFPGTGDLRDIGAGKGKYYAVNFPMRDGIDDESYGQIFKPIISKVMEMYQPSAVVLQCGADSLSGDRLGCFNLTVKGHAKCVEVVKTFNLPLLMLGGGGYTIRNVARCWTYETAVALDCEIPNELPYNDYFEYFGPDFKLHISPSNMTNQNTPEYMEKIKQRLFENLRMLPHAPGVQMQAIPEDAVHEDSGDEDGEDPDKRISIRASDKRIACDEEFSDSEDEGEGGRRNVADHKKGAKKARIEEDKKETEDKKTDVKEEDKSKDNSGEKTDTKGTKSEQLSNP

Kd: < 100 nM
Compound: Nc1ccc(-c2ccncc2)cc1NC(=O)N1Cc2cncnc2C1
